In article PMC7794297:
Where two headings read alike, the source gives them in different places.

What was measured:
[1] = biological target: T1, glucose oxidase (GOx) (Aspergillus niger, UniProt P13006); assay: GOx-DCL in presence of DTNB; design: purchased Sigma Aldrich; settings: large excess of DTNB
Method: The equilibration of the DCL was completed after 24 h (Fig. 9) and the oligomers were identified by HPLC-MS (Supplementary Figs. 4–20). The precise composition of the DCL (with and without GOx), was assessed by measuring the relative peak area (RPA). The normalized change of RPA was used to quantify the protein influence in the final DCL showing the amplification of the dimer of compound 4, that is (4)2 (Fig. 9b). Control experiments were set up to verify that the amplification of the dimer was not due to unspecific binding. Firstly the GOx was replaced by the bovine serum albumin (BSA). A stability study of BSA under the DCL conditions was performed using a fluorescence technique confirming the BSA stability in the DCL experiment (Supplementary Fig. 48)[50].
% v/v DMSO (266 µL). The DCL was stabilized for 24 hours at 6 °C. Then, BS A was removed by ultracentrifugation thr ough an Amicon ultra -filter (10 KDa) and the solution was analyzed by […]
GOx-DCL in presence of DTNB.
GOx- directed DCL: Dithiols 1-2 […]
To elucídate the type of inhibitor, Lineweaver-Burk plot were performed. GOx activity was measured at increasing concentration s of glucose (0.2 mM to 4 mM) and in presence and absence of (4)2 and DTNB. According to fluorescence s tudies and their Kd’ values, the concentration of the inhibitors were chosen. […]
IC50 was determined using different concentrations of inhibitors DTNB and (4)2. […]

[2] = biological target: T1, glucose oxidase (GOx); assay: Tryptophan fluorescence emission binding experiments with GOx; design: purchased Sigma Aldrich; settings: for Kd: GOx 0.8 µM, Tris pH 7.8, 5% DMSO, 10 °C
[3] = biological target: T1, glucose oxidase (GOx); assay: GOx activity assay, glucose oxidase-horseradish peroxidase coupled system with o-dianisidine; assay type: biochemical; design: purchased Sigma Aldrich; settings: for 1/Vo: Lineweaver-Burk;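 as to GOx activity: GOx activity followed by o-dianisidine absorbance at 500 nm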
[4] = biological target: apo and holo GOx; design: method as in PMID 10491329; settings: apo and holo GOx forms; cited from earlier work
[5] = [DTNB] 8 uM, Supplementary Figure 52 c
[6] = [DTNB] 40 uM, Supplementary Figure 52 c
[7] = [DTNB] 80 uM, Supplementary Figure 52 c
[8] = [DTNB] 200 uM, Supplementary Figure 52 c
[9] = [DTNB] 400 uM, Supplementary Figure 52 c
[10] = [Glucose] 1.6 μM, Supplementary Figure 52 a
[11] = [Glucose] 32 μM, Supplementary Figure 52 a
[12] = [Glucose] 48 μM, Supplementary Figure 52 a
[13] = [Glucose] 400 μM, Supplementary Figure 52 a
[14] = [Glucose] 800 μM, Supplementary Figure 52 a
[15] = [Glucose] 2000 μM, Supplementary Figure 52 a
[16] = [Glucose] 4000 μM, Supplementary Figure 52 a
[17] = [Glucose] 8000 μM, Supplementary Figure 52 a
[18] = [Glucose] 12000 μM, Supplementary Figure 52 a
[19] = [Glucose] 20000 μM, Supplementary Figure 52 a

T1 sequence (P13006 17-605): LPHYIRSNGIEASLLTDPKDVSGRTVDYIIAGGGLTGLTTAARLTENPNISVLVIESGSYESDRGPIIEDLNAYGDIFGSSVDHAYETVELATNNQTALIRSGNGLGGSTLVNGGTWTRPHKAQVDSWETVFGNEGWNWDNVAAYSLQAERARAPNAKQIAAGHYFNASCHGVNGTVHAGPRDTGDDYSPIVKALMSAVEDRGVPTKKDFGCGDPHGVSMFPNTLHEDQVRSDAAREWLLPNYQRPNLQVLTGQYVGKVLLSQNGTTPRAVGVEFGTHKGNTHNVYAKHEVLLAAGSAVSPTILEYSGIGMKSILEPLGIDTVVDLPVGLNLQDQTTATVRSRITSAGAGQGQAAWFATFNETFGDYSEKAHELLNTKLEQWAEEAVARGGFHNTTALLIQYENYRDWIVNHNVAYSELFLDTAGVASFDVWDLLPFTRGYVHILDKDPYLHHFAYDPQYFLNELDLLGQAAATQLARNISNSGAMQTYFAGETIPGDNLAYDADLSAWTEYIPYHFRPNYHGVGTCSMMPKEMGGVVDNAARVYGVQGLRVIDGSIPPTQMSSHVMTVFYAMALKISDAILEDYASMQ

O=C(O)c1cc(SSc2ccc([N+](=O)[O-])c(C(=O)O)c2)ccc1[N+](=O)[O-] [DTNB, 5,5′-dithiobis-2-nitrobenzoic acid, reference compound]
effect on GOx-directed DCL [1]: prevented the amplification of any other ligands except DTNB | Emission Average [2, 5]: 1800741 | Normalized Fluorescence [2, 5]: 0.1466 | Emission Average [2, 6]: 955958 | Normalized Fluorescence [2, 6]: 0.5470 | Emission Average [2, 7]: 361199 | Normalized Fluorescence [2, 7]: 0.8288 | Emission Average [2, 8]: 25171.8 | Normalized Fluorescence [2, 8]: 0.9881 | Emission Average [2, 9]: 521.51 | Normalized Fluorescence [2, 9]: 0.9998 | Kd ([2]; apparent dissociation constant, read-out: Kd'): 64 ± 2 µM | GOx Activity ([3]; IC50 data, inhibitor 1.4 nM, glucose 10 mM): 0.0674 min⁻¹ | GOx Activity ([3]; IC50 data, inhibitor 3.5 nM, glucose 10 mM): 0.0701 min⁻¹ | GOx Activity ([3]; IC50 data, inhibitor 7.0 nM, glucose 10 mM): 0.063 min⁻¹ | GOx Activity ([3]; IC50 data, inhibitor 14.0 nM, glucose 10 mM): 0.0639 min⁻¹ | GOx Activity ([3]; IC50 data, inhibitor 70.0 nM, glucose 10 mM): 0.0603 min⁻¹ | GOx Activity ([3]; IC50 data, inhibitor 140.0 nM, glucose 10 mM): 0.0454 min⁻¹ | GOx Activity ([3]; IC50 data, inhibitor 700.0 nM, glucose 10 mM): 0.0399 min⁻¹ | GOx Activity ([3]; IC50 data, inhibitor 1400.0 nM, glucose 10 mM): 0.0322 min⁻¹ | GOx Activity ([3]; IC50 data, inhibitor 1428571.0 nM, glucose 10 mM): 0.0388 min⁻¹ | GOx Activity ([3]; Ki data, inhibitor 3,5·10^-8 M, [Glucose] 0.0002 M): 0.0024 min⁻¹ | GOx Activity ([3]; Ki data, inhibitor 3,5·10^-8 M, [Glucose] 0.0007 M): 0.0073 min⁻¹ | GOx Activity ([3]; Ki data, inhibitor 3,5·10^-8 M, [Glucose] 0.0014 M): 0.013 min⁻¹ | GOx Activity ([3]; Ki data, inhibitor 3,5·10^-8 M, [Glucose] 0.0028 M): 0.0254 min⁻¹ | GOx Activity ([3]; Ki data, inhibitor 3,5·10^-8 M, [Glucose] 0.004 M): 0.0298 min⁻¹ | GOx Activity ([3]; Ki data, inhibitor 7·10^-8 M, [Glucose] 0.0002 M): 0.0022 min⁻¹ | GOx Activity ([3]; Ki data, inhibitor 7·10^-8 M, [Glucose] 0.0007 M): 0.0054 min⁻¹ | GOx Activity ([3]; Ki data, inhibitor 7·10^-8 M, [Glucose] 0.0014 M): 0.0121 min⁻¹ | GOx Activity ([3]; Ki data, inhibitor 7·10^-8 M, [Glucose] 0.0028 M): 0.0197 min⁻¹ | GOx Activity ([3]; Ki data, inhibitor 7·10^-8 M, [Glucose] 0.004 M): 0.0279 min⁻¹ | GOx Activity ([3]; Ki data, inhibitor 14·10^-8 M, [Glucose] 0.0002 M): 0.0008 min⁻¹ | GOx Activity ([3]; Ki data, inhibitor 14·10^-8 M, [Glucose] 0.0007 M): 0.004 min⁻¹ | GOx Activity ([3]; Ki data, inhibitor 14·10^-8 M, [Glucose] 0.0014 M): 0.0074 min⁻¹ | GOx Activity ([3]; Ki data, inhibitor 14·10^-8 M, [Glucose] 0.0028 M): 0.015 min⁻¹ | GOx Activity ([3]; Ki data, inhibitor 14·10^-8 M, [Glucose] 0.004 M): 0.0236 min⁻¹ | 1/Vo ([3]; inhibitor 0,07 µM, 1/[glucose] 250 M-1): 32.9749 min | 1/Vo ([3]; inhibitor 0,07 µM, 1/[glucose] 357 M-1): 56.0355 min | 1/Vo ([3]; inhibitor 0,07 µM, 1/[glucose] 714 M-1): 65.6495 min | 1/Vo ([3]; inhibitor 0,07 µM, 1/[glucose] 1430 M-1): 135.55 min | 1/Vo ([3]; inhibitor 0,07 µM, 1/[glucose] 5000 M-1): 532.407 min | 1/Vo ([3]; inhibitor 0,14 µM, 1/[glucose] 250 M-1): 37.1744 min | 1/Vo ([3]; inhibitor 0,14 µM, 1/[glucose] 357 M-1): 57.2815 min | 1/Vo ([3]; inhibitor 0,14 µM, 1/[glucose] 714 M-1): 76.102 min | 1/Vo ([3]; inhibitor 0,14 µM, 1/[glucose] 1430 M-1): 148 min | 1/Vo ([3]; inhibitor 0,14 µM, 1/[glucose] 5000 M-1): 505.051 min | Inhibitor Type ([3]; Lineweaver–Burk plots): non-competitive | Ki ([3]; non-competitive inhibition model, 37 °C, sodium acetate buffer pH 5.1): 0.2 ± 0.02 µM

OC[C@H]1O[C@@H](O)[C@H](O)[C@@H](O)[C@@H]1O [β-D-glucose]
Kd [4]: ~10000 µM | Kd ([2]; read-out: apparent dissociation constant): 1100 ± 20 µM | Emmsion average [2, 10]: 4205310 | Normalized Fluorescence [2, 10]: 0.03401 | Emmsion average [2, 11]: 4080311 | Normalized Fluorescence [2, 11]: 0.00328 | Emmsion average [2, 12]: 4060405 | Normalized Fluorescence [2, 12]: -0.00162 | Emmsion average [2, 13]: 4998302 | Normalized Fluorescence [2, 13]: 0.229 | Emmsion average [2, 14]: 5886318 | Normalized Fluorescence [2, 14]: 0.4473 | Emmsion average [2, 15]: 6538644 | Normalized Fluorescence [2, 15]: 0.6077 | Emmsion average [2, 16]: 6499875 | Normalized Fluorescence [2, 16]: 0.5982 | Emmsion average [2, 17]: 5944287 | Normalized Fluorescence [2, 17]: 0.4616 | Emmsion average [2, 18]: 7469372 | Normalized Fluorescence [2, 18]: 0.8366 | Emmsion average [2, 19]: 7323012 | Normalized Fluorescence [2, 19]: 0.8006
